Experimental data taken from patent publication US9828369B2, “Isoquinoline derivatives useful as inhibitors of diacylglyceride O-acyltransferase 2” (Merck Sharp & Dohme Corp., priority 2014, dated 2017).

Biological target: hDGAT2 (Homo sapiens (Human), UniProt Q96PD7)
Test: DGAT2 enzymatic activity assay (triolein formation, LC/MS/MS)
Conditions: read-out: IC50 values for inhibition of DGAT2; membrane prep of Sf-9 cells expressing hDGAT2; 25 μM diolein, 10 μM oleoyl-CoA; room temperature; triolein by LC/MS/MS

hDGAT2, sequence (Q96PD7 whole entry): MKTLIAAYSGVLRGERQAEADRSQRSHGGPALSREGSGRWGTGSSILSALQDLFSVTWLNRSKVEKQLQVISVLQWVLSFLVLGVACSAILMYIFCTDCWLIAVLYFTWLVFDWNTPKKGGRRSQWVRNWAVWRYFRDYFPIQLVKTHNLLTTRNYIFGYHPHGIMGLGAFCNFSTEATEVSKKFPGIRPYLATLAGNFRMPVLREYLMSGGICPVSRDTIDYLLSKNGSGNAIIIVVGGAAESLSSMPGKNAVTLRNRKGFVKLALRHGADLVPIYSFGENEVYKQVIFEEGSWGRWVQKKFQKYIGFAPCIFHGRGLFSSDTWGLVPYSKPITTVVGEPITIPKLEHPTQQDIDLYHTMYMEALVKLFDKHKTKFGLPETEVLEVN

IC50 | SMILES
4.31 µM | CC(C)(C)OC(=O)N1CCC=C(c2ccc(CNC(=O)Nc3cccc(Cl)c3Cl)c3cnccc23)C1 [Example 165, tert-butyl 3-(8-((3-(2,3-dichlorophenyl)ureido)methyl)isoquinolin-5-yl)-5,6-dihydropyridine-1(2H)-carboxylate]
4.41 µM | O=C(NCc1ccc(-c2cccc(C(=O)N3CCOCC3)c2)c2ccncc12)Nc1cccc(Cl)c1Cl [Example 166, 1-(2,3-dichlorophenyl)-3-((5-(3-(morpholine-4-carbonyl)phenyl)isoquinolin-8-yl)methyl)urea]
4.42 µM | O=C(NCc1ccc(C2=CCNC2)c2ccncc12)Nc1cccc(Cl)c1Cl [Example 167, 1-(2,3-dichlorophenyl)-3-((5-(2,5-dihydro-1H-pyrrol-3-yl)isoquinolin-8-yl)methyl)urea]
7.07 µM | COc1cccc(-c2ccc(CNC(=O)Nc3ccccc3-c3ccccc3)c3cnccc23)c1 [Example 169, 1-([1,1′-biphenyl]-2-yl)-3-((5-(3-methoxyphenyl)isoquinolin-8-yl)methyl)urea]
8.19 µM | COc1cccc(-c2ccc(CNC(=O)Nc3ccc(F)cc3F)c3ncccc23)c1 [Example 170, 1-(2,4-difluorophenyl)-3-((5-(3-methoxyphenyl)quinolin-8-yl)methyl)urea]
0.206 µM | COc1cccc(-c2ccc(CNC(=O)C3CC3c3ccccc3)c3ccccc23)c1 (stereo not shown) [Example 172, N-((4-(3-methoxyphenyl)naphthalen-1-yl)methyl)-2-phenylcyclopropanecarboxamide]

Further lines, the compound ahead of its results:

SMILES | IC50
CNC(=O)c1cccc(-c2ccc(CNC(=O)Nc3cccc(Cl)c3Cl)c3cnccc23)c1 [Example 161, 3-(8-((3-(2,3-dichlorophenyl)ureido)methyl)isoquinolin-5-yl)-N-methylbenzamide] | 1.21 µM
CC(C)(C)OC(=O)N1CC=C(c2ccc(CNC(=O)Nc3cccc(Cl)c3Cl)c3cnccc23)CC1 [Example 162, tert-butyl 4-(8-((3-(2,3-dichlorophenyl)ureido)methyl)isoquinolin-5-yl)-5,6-dihydropyridine-1(2H)-carboxylate] | 1.95 µM
O=C(O)CCc1ccc(-c2ccc(CNC(=O)Nc3cccc(Cl)c3Cl)c3cnccc23)cc1 [Example 163, 3-(4-(8-((3-(2,3-dichlorophenyl)ureido)methyl)isoquinolin-5-yl)phenyl)propanoic acid] | 2.36 µM
CC(c1ccccc1)c1ccc(CNC(=O)Nc2cccc(Cl)c2Cl)c2cnccc12 (stereo not shown) [Example 164, 1-(2,3-dichlorophenyl)-3-((5-(1-phenylethyl)isoquinolin-8-yl)methyl)urea] | 4.21 µM
